The record followed here is ChEMBL document CHEMBL5226308, “Amide-Amine Replacement in Indole-2-carboxamides Yields Potent Mycobactericidal Agents with Improved Water Solubility” (ACS Med Chem Lett, 2021).

In brackets after ≈: the same amount, converted by molar mass. Activity calls are given as the source filed them. The rule behind the calls is not given here. Where only a bound is given, the exact number is not on record here.

In general, MIC50 refers to the lowest concentration that inhibits either 50% of growth or 50% of the strains tested, depending on the study. What is called solubility is the dissolved amount per volume that the medium holds. In general, MIC90 refers to the lowest concentration that inhibits either 90% of growth or 90% of the strains tested, depending on the study. Broadly, the IC50 is the concentration that inhibits the measured activity by half. What is called half-life is how long it takes for the measured level to halve.

For series [1], the system named is Mycobacterium tuberculosis. Put plainly: Antimycobacterial activity against Mycobacterium tuberculosis H37Rv ATCC 27294 assessed as inhibition of bacterial growth incubated for 7 days by broth dilution method. It is filed as functional. The following applies: H37Rv ATCC 27294, 168 h, time 7 day.
Series [2] relates to Mycolicibacterium smegmatis. Put plainly: Disruption of proton motive force in Mycobacterium smegmatis spheroplasts assessed as disruption of proton gradient by measuring acidification of intracellular spaces within spheroplasts at 2 to 5 uM measured after 30 mins by BCECF-AM dye based fluorescence analysis. The format is functional, organism-based. As to conditions: dose 2-5 µM.

The nature of series [3]: Aqueous solubility of the compound in aqueous buffer at 100 uM incubated for 24 hrs under agitation condition by UV-Vis spectrophotometric analysis. It is filed as physicochemical.
The test system of series [4] is Mycolicibacterium smegmatis. Kind of series: Disruption of proton motive force in Mycobacterium smegmatis spheroplasts assessed as disruption of proton gradient by measuring acidification of intracellular spaces within spheroplasts at 2XMIC90 measured after 30 mins by BCECF-AM dye based fluorescence analysis. The format is functional, organism-based.
A short description of series [5]: Effective permeability coefficient of the compound at 500 uM incubated for 18 hrs under agitation condition by PAMPA assay. It is filed as ADME. The following applies: for Papp at 18 h, 500 µM: PAMPA, read-out: Peff. A general note: PAMPA measures passive passage across an artificial lipid membrane.
Series [6] concerns Mycobacterium tuberculosis. Put plainly: Myco-bactericidal activity against Mycobacterium tuberculosis H37Rv ATCC 27294 assessed as inhibition of bacterial colony formation incubated for 7 days by agar plate method. The following applies: H37Rv ATCC 27294, 168 h, time 7 day, read-out: MBC99.9. It is filed as functional.
Series [7] is described as follows: Cytotoxicity against African green monkey Vero E6 cells assessed as reduction in cell viability incubated for 48 hrs by MTS assay. It is filed as toxicity, cell-based, Chlorocebus sabaeus, Vero C1008.
Series [8] can be described thus: Selectivity index, ratio of IC50 for cytotoxicity against African green monkey Vero E6 cells to MIC50 for antimycobacterial activity against Mycobacterium tuberculosis H37Rv ATCC 27294. The format is toxicity, cell-based, Vero C1008. The following applies: read-out: Selectivity Index.
The nature of series [9]: Selectivity index, ratio of IC50 for cytotoxicity against African green monkey Vero E6 cells to MIC50 for antimycobacterial activity against Mycobacterium bovis BCG ATCC 35734. The format is toxicity, cell-based, Vero C1008. As to conditions: read-out: Selectivity Index.
Series [10] is described as follows: Half life in rat liver microsomes at 200 uM incubated for 5 mins followed by NADPH addition and measured for 45 mins by LC-MS/MS analysis. As to conditions: time 50 min. It is filed as ADME, Microsome. Background: Microsomes from liver hold many membrane-bound enzymes, among them those of drug oxidation.
The nature of series [11]: Ratio of MIC90 for antimycobacterial activity against Mycobacterium bovis BCG B16-1 harboring mmpL3 C1932G/F644L mutant to MIC90 for antimycobacterial activity against wild type Mycobacterium bovis BCG ATCC 35734. It is filed as functional.
Series [12] can be described thus: Ratio of MIC90 for antimycobacterial activity against Mycobacterium bovis BCG B16-2 harboring mmpL3 C1932A/F644L mutant to MIC90 for antimycobacterial activity against wild type Mycobacterium bovis BCG ATCC 35734. The format is functional.
Series [13] in a line: Ratio of MIC90 for antimycobacterial activity against Mycobacterium bovis BCG B33-1 harboring mmpL3 C1932G/F644L mutant to MIC90 for antimycobacterial activity against wild type Mycobacterium bovis BCG ATCC 35734. The format is functional.
Series [14] can be described thus: Ratio of MIC90 for antimycobacterial activity against Mycobacterium bovis BCG B33-2 harboring mmpL3 C765G/F255L mutant to MIC90 for antimycobacterial activity against wild type Mycobacterium bovis BCG ATCC 35734. The format is functional.
Series [15] in a line: Ratio of MIC90 for antimycobacterial activity against Mycobacterium bovis BCG B47-1 harboring mmpL3 C1932G/F644L mutant to MIC90 for antimycobacterial activity against wild type Mycobacterium bovis BCG ATCC 35734. It is filed as functional.
Series [16] in a line: Ratio of MIC90 for antimycobacterial activity against Mycobacterium bovis BCG B47-2 harboring mmpL3 G2041A/V681I mutant to MIC90 for antimycobacterial activity against wild type Mycobacterium bovis BCG ATCC 35734. It is filed as functional.
Series [17] in a line: Ratio of MIC90 for antimycobacterial activity against Mycobacterium bovis BCG B47-3 harboring mmpL3 T1930C/F644L mutant to MIC90 for antimycobacterial activity against wild type Mycobacterium bovis BCG ATCC 35734. It is filed as functional.
Series [18] is described as follows: Ratio of MIC90 for antimycobacterial activity against Mycobacterium bovis BCG B47-4 harboring mmpL3 C1932G/F644L mutant to MIC90 for antimycobacterial activity against wild type Mycobacterium bovis BCG ATCC 35734. The format is functional.

`CC1(C)CCC(NC(=O)c2cc3c(F)cc(F)cc3[nH]2)CC1`: the MIC50 in [1] amounted to 0.023 µM (≈ 0.00705 µg/mL).
In the case of `N#CC(C#N)=NNc1cccc(Cl)c1`, the result in series [2] was Active.
For `O=C(NC1CCCCCCC1)c1cc2ccccc2s1`, the concentration in solution in series [3] (solubility at 24 h, 100 µM) was 3.3 µM (≈ 0.949 µg/mL). Moreover, the result in [4] was inactive.
Consider `C[C@@H]1[C@H]2C[C@@H](C[C@H]1NC(=O)c1cc3c(F)cc(F)cc3[nH]1)C2(C)C`, for which the MIC90 in series [1] was 0.012 µM (≈ 0.00399 µg/mL).
In the case of `CC(C)NCC(O)COc1cccc2ccccc12` (stereo not given) [PROPRANOLOL], the Papp at 18 h, 500 µM in series [5] was 11.9 ×10⁻⁶ cm/s.
On to `NNC(=O)c1ccncc1` [ISONIAZID], for which, in series [1], the MIC50 came out at 1.8 µM (≈ 0.247 µg/mL) and the MIC90 is 3.8 µM (≈ 0.521 µg/mL). Further, the MBC in series [6] was determined as 3.2 µM (≈ 0.439 µg/mL).
The compound `c1ccc2[nH]c(CNC3CCCCCCC3)cc2c1` registered a solubility at 24 h, 100 µM in series [3] of 99.7 µM (≈ 25.6 µg/mL).
`Brc1ccc2cc(CNC3CCCCCCC3)[nH]c2c1` returned a solubility at 24 h, 100 µM in series [3] of 35.4 µM (≈ 11.9 µg/mL). The Papp at 18 h, 500 µM in series [5] was found to be 13.4 ×10⁻⁶ cm/s.
Compound `Cc1cc(C)c2cc(C(=O)NC3CCCCCCC3)[nH]c2c1` returned a solubility at 24 h, 100 µM in series [3] of 5.7 µM (≈ 1.7 µg/mL). The Peff in [5] (pampa, 18 h, 500 µM) is on record as 14 10^-6 cm/s. Also, the MIC90 in series [1] was determined as 0.013 µM (≈ 0.00388 µg/mL).
As to `O=C(NC1CCCCCCC1)c1cc2ccc(C(F)(F)F)cc2[nH]1`, the concentration in solution in [3] (solubility at 24 h, 100 µM) was 2.2 µM (≈ 0.744 µg/mL). The Papp at 18 h, 500 µM in series [5] was determined as 0.34 ×10⁻⁶ cm/s. For the same compound, the MIC50 in series [1] turned out to be 0.02 µM (≈ 0.00677 µg/mL). In addition, the MIC90 in series [1] was 0.04 µM (≈ 0.0135 µg/mL). Moreover, in series [6], the MBC is 0.08 µM (≈ 0.0271 µg/mL). Further, in [7], the IC50 at 48 h is over 100 µM. Besides, the selectivity ratio in series [8] and in series [9] was over 5000 each time. Further, the half-life at 200 µM in [10] was determined as 25.6 min. In addition, the Ratio in [11], in series [12], in series [13], in series [14], in series [15] and in [16] was 5 in each case. Moreover, the Ratio in series [17] and in series [18] was 5 throughout. In addition, the result in series [4] was inactive.
With `CC1(C)CCC(NC(=O)c2cc3c(Cl)cc(Cl)cc3[nH]2)CC1`, the MIC50 in [1] worked out at 0.015 µM (≈ 0.00509 µg/mL).
With `Cc1cc(C)c2cc(CNC3CCCCCCC3)[nH]c2c1`, the solubility at 24 h, 100 µM in [3] came out at 70.1 µM (≈ 19.9 µg/mL). In addition, the Papp at 18 h, 500 µM in [5] was 18.4 ×10⁻⁶ cm/s. Also, the MIC90 in [1] amounted to 0.31 µM (≈ 0.0882 µg/mL).
For `O=C(NC1CCC2(CCCCC2)CC1)c1cc2c(F)cc(F)cc2[nH]1`, the MIC90 in series [1] came out at 0.003 µM (≈ 0.00104 µg/mL).
In [3], `O=C(NC1CCCCCCC1)c1cc2ccc(Br)cc2[nH]1` displayed a solubility at 24 h, 100 µM of 1.6 µM (≈ 0.559 µg/mL). For the same compound, the Papp at 18 h, 500 µM in [5] is 8.1 ×10⁻⁶ cm/s.
For `c1ccc2sc(CNC3CCCCCCC3)cc2c1`, in series [3], the solubility at 24 h, 100 µM is 73.5 µM (≈ 20.1 µg/mL). Also, the Ratio in [11], in [12], in series [13], in [14], in [15] and in [16] was 5 each time. For the same compound, the Ratio in series [17] and in series [18] was 5 throughout. Also, in series [4], the outcome was inactive.
On to `FC(F)(F)c1ccc2cc(CNC3CCCCCCC3)[nH]c2c1`, for which the solubility at 24 h, 100 µM in series [3] stood at 31 µM (≈ 10.1 µg/mL). Also, in series [5], the Papp at 18 h, 500 µM was 13.4 ×10⁻⁶ cm/s. Further, in series [1], the MIC50 amounted to 0.05 µM (≈ 0.0162 µg/mL). The MIC90 in [1] is 0.13 µM (≈ 0.0422 µg/mL). For the same compound, the MBC in series [6] stood at 0.63 µM (≈ 0.204 µg/mL). In addition, in series [7], the IC50 at 48 h is 22 µM. Further, the selectivity ratio in series [8] came to 366; in series [9] it was 550. In series [10], this compound yielded a half-life at 200 µM of 8.2 min. Further, the Ratio in series [11], in [12], in series [13], in series [14], in series [15] and in series [16] was 5 each time. The Ratio in series [17] and in series [18] was 5 each time. The outcome in series [4] was inactive.
`O=C(NC1CCCCCCC1)c1cc2ccccc2[se]1` returned a solubility at 24 h, 100 µM in series [3] of 3.7 µM (≈ 1.24 µg/mL). For the same compound, the outcome in series [4] was inactive.
For the compound `c1ccc2[se]c(CNC3CCCCCCC3)cc2c1`, the concentration in solution in [3] (solubility at 24 h, 100 µM) was 77.8 µM (≈ 24.9 µg/mL). Further, the result in series [4] was inactive.
`O=C(NC1C2CC3CC(C2)CC1C3)c1cc2cc(Cl)ccc2[nH]1` (stereo not given): the MIC90 in series [1] came out at 0.47 µM (≈ 0.155 µg/mL).
For `Cc1c(CN2CCN(C)CC2)cc(-c2ccc(Cl)cc2)n1-c1ccc(Cl)cc1`, the outcome in series [4] was inactive.
`O=C(NC1CCCCCCC1)c1cc2ccccc2[nH]1` had a solubility at 24 h, 100 µM in series [3] of 2.4 µM (≈ 0.649 µg/mL).
